Experimental data as given in patent publication US20110009628A1, “Compounds and Compositions for Modulating Lipid Levels and Methods of Preparing Same” (priority 2009, published 2011).
Structures can show the parent of a compound that is named as a salt.

How the values were obtained:
[1] = system: LDLR protein expression in HepG2 cells; experiment: Western blot of LDLR protein in HepG2 cells, Compounds 162 and 163; format: cell-based, human; conditions: 20 μM, 16 or 24 hours, FIG. 7
Protocol: FIG. 7 is a Western blot analysis of LDLR and PCSK9 expression in HepG2 cells. HepG2 cells seeded in 12-well culture plates were cultured in 0.5% FBS MEM overnight. Compounds 162 and 163 at 20 μM were added to cells for the indicated times. Untreated and treated cells were harvested at the same indicated time points. Total cell lysates were isolated and 50 μg per sample was analyzed for LDLR and PCSK9 protein abundance by western blotting. The membrane was reprobed with anti-actin antibody to examine the equal loading of cell lysates.
Chicken anti-LDLR was purchased from Abcam. HepG2 cells cultured in 60-mm dishes were incubated overnight in medium containing 0.5% fetal bovine serum prior to the addition of compounds at 20 μM concentration. After 16 or 24 hours of treatment, total cell lysate was isolated and 50 μg of protein was separated on SDS-PAGE and transferred to nitrocellulose membrane for immunoblotting with anti-LDLR.

liver PCSK9 mRNA = experiment: Liver PCSK9 mRNA in treated hamsters, quantitative real-time RT-PCR; format: in vivo, hamster; conditions: 100 mg/kg, 2 weeks, 10 animals per group
Protocol: To directly correlate the LDL-C and VLDL-C lowering effects of Compound 162 with its ability to upregulate hepatic LDLR expression and down-regulation of PCSK9, at the end of treatment, animals from vehicle and Compound 162 100 mg/kg treated groups were euthanized and levels of liver LDLR and PCSK9 mRNA were individually assessed by quantitative real-time RT-PCR using hamster specific probes. The results represent mean±SEM of 10 animals per group. The liver expression of LDLR mRNA was increased 1.7-fold over control by Compound 162 treatment (p<0.001). […] Thus, these in vivo data confirmed the in vitro effects of Compound 162 in upregulating LDLR mRNA while inhibiting PCSK9 mRNA expressions.

in vivo = experiment: in vivo; design: species or system Golden Syrian hamsters; conditions: male, Golden Syrian, hamster, po
Protocol: For testing the efficacy of Compound 141 (phosphate salt of Compound 127) or its enantiomers (Compound 162/Compound 163) the following suspension formulation procedure was developed to make 100 ml of Compound 141 in suspension at 10 mg/ml concentration in 0.1 M tartaric buffer pH. 3 containing 0.5% hydroxypropylcellulose H-type (HPC-H):
Step 1: 1.50 g L-(+)-tartaric acid was dissolved in 100 mL water to prepare a tartaric acid solution. The solution was adjusted to pH 3 with 1.2 mL 5N NaOH solution to provide the tartaric acid buffer (100 mM). Step 2: 0.5 g HPC-H powder was added to 10 mL tartaric acid buffer (100 mM) at 50° C. The slurry was stirred for 30 minutes, and then diluted with 90 mL tartaric acid buffer (100 mM) at room temperature to provide 0.5% HPC-H. Agitation was continued until all particles were dissolved and the solution was completely free of gels. Step 3: 1.20 g Compound 141 (or Compound 162 or Compound 163) and 1.20 g mannitol were mixed and ground through a 120 mesh sieve, then the mixture was ground slightly again. The mixture was dispersed in 100 mL 0.5% HPC-H-L-(+)-Tartaric acid buffer (pH=3), then stirred until the drug dispersed evenly. The final pH was 2.6. All the above procedures were completed at room temperature (˜25° C.). The final concentration of Compound 141 was 10 mg/ml after correction of the salt weight.
The pharmacokinetic profile and bioavailability of Compound 141 (phosphate salt of Compound 127) in male Wistar rats following single intravenous (iv) and oral administration (p.o.) were measured according to the procedures of Example 4 and are summarized in Table 11. The pharmacokinetic profile of Compound 162 in male Golden Syrian masters following oral administration (pox) is summarized in Table 12.

## COc1cc2c(cc1OC)C1Cc3ccc(OC)c(OS(=O)(=O)c4cccc(F)c4)c3CN1CC2 (single isomer, unassigned) [Compound 162, 2,3,10-Trimethoxy-5,6,7,8,13,13a-hexahydroisoquinolino[2,1-b]isoquinolin-9-yl 3-fluorobenzenesulfonate phosphate Salt (Enantiomer having positive optical rotation)]
[1]
  LDLR mRNA and protein expression: significantly enhance
Liver PCSK9 mRNA
  liver mRNA levels of PCSK9: 57 % of vehicle control
In vivo; 15 mg/kg
  AUC(0-inf): 914 ng·h/mL
  AUC(0-t): 889 ng·h/mL
  Cmax: 195 ng/mL
  MRT inf: 6.95 h
  MRT last: 6.06 h
  Tmax: 0.5 h
  t1/2z: 5.21 h
In vivo; 30 mg/kg
  AUC(0-inf): 2110 ng·h/mL
  AUC(0-t): 2020 ng·h/mL
  Cmax: 848 ng/mL
  MRT inf: 5.17 h
  MRT last: 3.81 h
  Tmax: 0.5 h
  t1/2z: 6.85 h
